# Patent publication US8017612B2, “Piperazine compound and use thereof as a HCV polymerase inhibitor” (priority 2006, dated 2011)
# Counter-ions that a name gives are not always drawn.
# Tests used:
# [1] = biological target: T1, HCV polymerase (NS5B) type 1b (Hepatitis C virus genotype 1b, UniProt P26663); assay: Assay of enzyme (HCV polymerase) inhibitory activity, type 1b enzyme; format: biochemical, HCV BK strain (type 1b)
# T1 construct: a region encoding NS5B (J Virol 1991 March, 65(3), 1105-13, 544 amino acids after deletion of 47 amino acids on the C-terminal); 6xHis (C); made in house; host or cells: Escherichia coli
# Summary of the method: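 Rxn: NS5B 1b (BK, ΔC47, His6) 0.5 μg/ml; substrate RNA 5 μg/ml; ATP/GTP/CTP 50 μM, UTP 2 μM + [5,6-3H]UTP; 20 mM Tris pH 7.5, 5 mM MgCl2, 50 mM NaCl, 1 mM EDTA/DTT. 25 °C, 60 min. Stop with TCA/pyrophosphate, filter, scintillation count; IC50 vs. untreated.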
# [2] = biological target: T2, HCV polymerase (NS5B) type 1a (Hepatitis C virus genotype 1a, UniProt P26664); assay: Assay of enzyme (HCV polymerase) inhibitory activity, type 1a enzyme; format: biochemical, HCV type 1a (cloned from the blood of patients)
# T2 construct: made in house; host or cells: Escherichia coli (by the 'similar method' of the 1b enzyme)
# Summary of the method: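 NS5B Δ47 C-term His6 (type 1a, 1.5 μg/ml); substrate RNA 5 μg/ml; ATP/GTP/CTP 50 μM, UTP 2 μM + [5,6-3H]UTP; Tris pH 7.5, MgCl2 5 mM; 25° C, 60 min. TCA/pyrophosphate stop, GF/B filter, scintillation. IC50 vs no-compound control.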
# [3] = HCV polymerase inhibitory activity IC50, 1b, type 1b enzyme
# [4] = HCV polymerase inhibitory activity IC50, 1a, type 1a enzyme
# [5] = HCV polymerase inhibitory activity (IC50), 1b, type 1b enzyme 0.5 μg/ml, 25° C., 60 min
# [6] = HCV polymerase inhibitory activity (IC50), 1a, type 1a enzyme 1.5 μg/ml, 25° C., 60 min
Compound,"IC50 [1, 3]","IC50 [2, 4]","IC50 [1, 5]","IC50 [2, 6]"
"O=C(NCc1ccc(OC(F)(F)F)cc1)[C@H]1CN(c2nn3c(C(F)(F)F)cc(=O)nc3s2)CCN1S(=O)(=O)c1ccc(OC(F)(F)F)cc1 [Example 1049, (R)-4-(7-oxo-5-trifluoromethyl-7H-[1,3,4]thiadiazolo[3,2-a]pyrimidin-2-yl)-1-(4-trifluoromethoxy-benzenesulfonyl)-piperazine-2-carboxylic acid 4-trifluoromethoxy-benzylamide]",< 100 nM,< 100 nM,,
"CCC(F)(F)c1ccc(CNC(=O)[C@H]2CN(C(=O)Nc3cc(C)ns3)CCN2S(=O)(=O)c2ccc(OC(F)(F)F)cc2)cc1 [Example 553, (R)-4-(4-trifluoromethoxy-benzenesulfonyl)-piperazine-1,3-dicarboxylic acid 3-[4-(1,1-difluoro-propyl)-benzylamide] 1-[(3-methyl-isothiazol-5-yl)-amide]]",,,< 100 nM,< 100 nM
"CC(=O)N1CCN(S(=O)(=O)c2ccc(C(C)C)cc2)C(C(=O)NCc2cccc(N(C)C)c2)C1 (stereo not shown) [Example 128, 4-acetyl-1-(4-isopropyl-benzenesulfonyl)-piperazine-2-carboxylic acid 3-dimethylamino-benzylamide]",,,> 1000 nM,> 1000 nM
"CCC(F)(F)c1ccc(CNC(=O)[C@H]2CN(C(=O)Nc3nc[nH]n3)CCN2S(=O)(=O)c2ccc(OC(F)(F)F)cc2)cc1 [Example 565, (R)-4-(4-trifluoromethoxy-benzenesulfonyl)-piperazine-1,3-dicarboxylic acid 3-[4-(1,1-difluoro-propyl)-benzylamide] 1-[(1H-[1,2,4]triazol-3-yl)-amide]]",,,< 100 nM,100 to 1000 nM
"CC(=O)N1CCN(S(=O)(=O)c2ccc(C(C)C)cc2)[C@@H](C(=O)NCCc2ccc(C(=O)O)cc2)C1 [Example 393, 4-(2-{[(R)-4-acetyl-1-(4-isopropyl-benzenesulfonyl)-piperazine-2-carbonyl]-amino}-ethyl)-benzoic acid]",,,> 1000 nM,> 1000 nM
"CC(C)c1ccc(CNC(=O)[C@H]2CN(C(=O)Cc3cccnc3)CCN2S(=O)(=O)c2ccc(C(F)(F)F)cc2)cc1 [Example 175, (R)-4-(2-pyridin-3-yl-acetyl)-1-(4-trifluoromethyl-benzenesulfonyl)-piperazine-2-carboxylic acid 4-isopropyl-benzylamide]",,,100 to 1000 nM,100 to 1000 nM
"O=C(NCc1ccc(OC(F)F)cc1)[C@H]1CN(c2nc3nc(C(F)(F)F)ncc3s2)CCN1S(=O)(=O)c1ccc(C(F)(F)F)cc1 [Example 1001, (R)-1-(4-trifluoromethyl-benzenesulfonyl)-4-(5-trifluoromethyl-thiazolo[4,5-d]pyrimidin-2-yl)-piperazine-2-carboxylic acid 4-difluoromethoxy-benzylamide]",< 100 nM,< 100 nM,,
"O=C(O)c1cncc2ncc(N3CCN(S(=O)(=O)c4ccc(Cl)s4)[C@@H](C(=O)NCc4ccc(OC(F)(F)F)cc4)C3)nc12 [Example 861, 2-[(R)-4-(5-chloro-thiophene-2-sulfonyl)-3-(4-trifluoromethoxy-benzylcarbamoyl)-piperazin-1-yl]-pyrido[3,4-b]pyrazine-8-carboxylic acid]",< 100 nM,< 100 nM,,
"COCCn1ncc2sc(N3CCN(S(=O)(=O)c4ccc(OC(F)(F)F)cc4)[C@@H](C(=O)NCc4ccc(OC(F)(F)F)cc4)C3)nc2c1=O [Example 1071, (R)-4-[5-(2-methoxy-ethyl)-4-oxo-4,5-dihydro-thiazolo[4,5-d]pyridazin-2-yl]-1-(4-trifluoromethoxy-benzenesulfonyl)-piperazine-2-carboxylic acid 4-trifluoromethoxy-benzylamide]",< 100 nM,< 100 nM,,
"CCCc1ccc(CNC(=O)[C@H]2CN(c3cnc4cncnc4n3)CCN2S(=O)(=O)c2ccc(OC(F)(F)F)cc2)cc1O [Example 723, (R)-4-pteridin-7-yl-1-(4-trifluoromethoxy-benzenesulfonyl)-piperazine-2-carboxylic acid 3-hydroxy-4-propyl-benzylamide]",< 100 nM,100 to 1000 nM,,
"CC(C)c1ccc(CNC(=O)[C@H]2CN(C(=O)CNCCC(=O)O)CCN2S(=O)(=O)c2ccc(C(F)(F)F)cc2)cc1 [Example 391, 3-{2-[(R)-3-(4-isopropyl-benzylcarbamoyl)-4-(4-trifluoromethyl-benzenesulfonyl)-piperazin-1-yl]-2-oxo-ethylamino}-propionic acid hydrochloride]",,,100 to 1000 nM,100 to 1000 nM
"CCC(F)(F)c1ccc(CNC(=O)[C@H]2CN(c3cnc4cnccc4n3)CCN2S(=O)(=O)c2ccc(N3CCCC3)cc2)cc1 [Example 743, (R)-4-pyrido[3,4-b]pyrazin-2-yl-1-(4-pyrrolidin-1-yl-benzenesulfonyl)-piperazine-2-carboxylic acid 4-(1,1-difluoro-propyl)-benzylamide]",< 100 nM,< 100 nM,,
"CC(=O)N1CCN(S(=O)(=O)c2ccc(C(C)C)cc2)C(C(=O)NCc2cccc(Cl)c2)C1 (stereo not shown) [Example 33, 4-acetyl-1-(4-isopropyl-benzenesulfonyl)-piperazine-2-carboxylic acid 3-chloro-benzylamide]",,,> 1000 nM,> 1000 nM
"CCC(F)(F)c1ccc(CNC(=O)[C@H]2CN(c3cnc4cncnc4n3)CCN2S(=O)(=O)c2ccc(I)cc2)cc1 [Example 708, (R)-1-(4-iodo-benzenesulfonyl)-4-pteridin-7-yl-piperazine-2-carboxylic acid 4-(1,1-difluoro-propyl)-benzylamide]",< 100 nM,< 100 nM,,
"O=C1CCC(N2CCN(S(=O)(=O)c3ccc(OC(F)(F)F)cc3)[C@@H](C(=O)NCc3ccc(OC(F)(F)F)cc3)C2)CN1 (stereo partly drawn) [Example 923, (R)-4-(6-oxo-piperidin-3-yl)-1-(4-trifluoromethoxy-benzenesulfonyl)-piperazine-2-carboxylic acid 4-trifluoromethoxy-benzylamide]",100 to 1000 nM,100 to 1000 nM,,
"CC(=O)N1CCN(S(=O)(=O)c2ccc3c(c2)CCC3)[C@@H](C(=O)NCc2ccc(C(C)C)cc2)C1 [Example 204, (R)-4-acetyl-1-(indane-5-sulfonyl)-piperazine-2-carboxylic acid 4-isopropyl-benzylamide]",,,100 to 1000 nM,100 to 1000 nM
"CCC(F)(F)c1ccc(CNC(=O)[C@H]2CN(C(=O)/C=C\C(=O)O)CCN2S(=O)(=O)c2ccc(OC(F)(F)F)cc2)cc1 [Example 666, (Z)-4-[(R)-3-[4-(1,1-difluoro-propyl)-benzylcarbamoyl]-4-(4-trifluoromethoxy-benzenesulfonyl)-piperazin-1-yl]-4-oxo-but-2-enoic acid]",> 1000 nM,> 1000 nM,,
"O=C(NCc1ccc(OC(F)(F)F)cc1)[C@H]1CN(c2nc3ccc(=O)[nH]c3s2)CCN1S(=O)(=O)c1ccc(C(F)(F)F)cc1 [Example 1086, (R)-4-(5-oxo-4,5-dihydro-thiazolo[5,4-b]pyridin-2-yl)-1-(4-trifluoromethyl-benzenesulfonyl)-piperazine-2-carboxylic acid 4-trifluoromethoxy-benzylamide]",< 100 nM,< 100 nM,,
"O=C(O)c1cnc(N2CCN(S(=O)(=O)c3ccc(OC(F)(F)F)cc3)[C@@H](C(=O)NCc3ccc(OC(F)F)c(F)c3)C2)cn1 [Example 1111, (R)-3-(4-difluoromethoxy-3-fluoro-benzylcarbamoyl)-4-(4-trifluoromethoxy-benzenesulfonyl)-3,4,5,6-tetrahydro-2H-[1,2′]bipyrazinyl-5′-carboxylic acid]",< 100 nM,< 100 nM,,
"CC(=O)N1CCN(S(=O)(=O)c2ccc(C(C)C)cc2)C(C(=O)NCc2ccc(-c3ccc(Cl)cc3)cc2)C1 (stereo not shown) [Example 116, 4-acetyl-1-(4-isopropyl-benzenesulfonyl)-piperazine-2-carboxylic acid (4′-chloro-biphenyl-4-ylmethyl)-amide]",,,> 1000 nM,> 1000 nM
"O=C(NCc1ccc(OC(F)(F)F)cc1)[C@H]1CN(c2nc3nc(CO)ncc3s2)CCN1S(=O)(=O)c1ccc(C(F)(F)F)cc1 [Example 1052, (R)-4-(5-hydroxymethyl-thiazolo[4,5-d]pyrimidin-2-yl)-1-(4-trifluoromethyl-benzenesulfonyl)-piperazine-2-carboxylic acid 4-trifluoromethoxy-benzylamide]",< 100 nM,< 100 nM,,
"CC(=O)N1CCN(S(=O)(=O)c2ccc(Cl)cc2)C(C(=O)NCc2ccc(C(F)(F)F)cc2)C1 (stereo not shown) [Example 20, 4-acetyl-1-(4-chloro-benzenesulfonyl)-piperazine-2-carboxylic acid 4-trifluoromethyl-benzylamide]",,,> 1000 nM,> 1000 nM
"COCC1(c2ccc(CNC(=O)[C@H]3CN(c4nc5cn[nH]c(=O)c5s4)CCN3S(=O)(=O)c3ccc(OC(F)(F)F)cc3)cc2)CC1 [Example 882, (R)-4-(7-oxo-6,7-dihydro-thiazolo[4,5-d]pyridazin-2-yl)-1-(4-trifluoromethoxy-benzenesulfonyl)-piperazine-2-carboxylic acid 4-(1-methoxymethyl-cyclopropyl)-benzylamide]",< 100 nM,100 to 1000 nM,,
